Like-named read-outs stand apart in the source and are kept apart here.
Key:
[1] = test system: human monocytic cell line U937; assay: Human U937 cellular necroptosis assay (TNFalpha + z-VAD-FMK, Cell Titer-Glo viability); format: cell-based; conditions: U937 cells, 25 ng/mL human TNFalpha + 25 μM z-VAD-FMK, read-out: hU937 Avg IC50
How it was run: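 Readout is CellTiter-Glo 2.0 luminescence after 22 h at 37° C with compound, in cells triggered by human TNFalpha (25 ng/mL) and z-VAD-FMK (25 μM) in phenol red-free RPMI/10% FBS. Values are run-averaged IC50s from a four-parameter logistic curve.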

RIPK1 = RIPK1 (Homo sapiens (Human), UniProt Q13546); assay: ADP-Glo kinase assay (RIPK1 activity, conversion of ATP to ADP); format: biochemical; conditions: 5 nM RIPK1, 50 μM ATP, 6 h reaction; read-out: RIPK1 Enzyme Avg IC50
Chain of RIPK1 (Q13546 1-327): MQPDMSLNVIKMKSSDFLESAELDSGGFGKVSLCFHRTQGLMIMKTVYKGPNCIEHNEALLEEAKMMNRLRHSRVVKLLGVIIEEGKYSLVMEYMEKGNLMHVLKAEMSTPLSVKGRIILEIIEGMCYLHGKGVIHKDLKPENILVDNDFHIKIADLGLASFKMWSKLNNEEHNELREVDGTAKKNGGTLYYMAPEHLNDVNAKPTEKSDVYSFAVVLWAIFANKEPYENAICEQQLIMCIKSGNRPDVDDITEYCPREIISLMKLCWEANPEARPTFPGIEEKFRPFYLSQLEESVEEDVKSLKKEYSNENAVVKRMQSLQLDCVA
How it was run: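 RIPK1 (5 nM final) was preincubated 10 min at rt with 1:3-diluted compounds in HEPES pH 7.5/MgCl2/DTT/BSA/CHAPS buffer. ATP (50 μM final) was then added for 6 h, and ADP formed was read by ADP-Glo luminescence. IC50 values came from four-parameter logistic fitting.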

| Compound | IC50 ([1]; Homo sapiens, U-937, 22 h) | IC50 (RIPK1) | IC50 ([1]; 22 h) |
| --- | --- | --- | --- |
| CC(Oc1cc(Cl)ncn1)C12CC(C(=O)N3CC(F)CC3c3cccc(F)c3)(C1)C2 (stereo not drawn) [Example 43, (3-(1-((6-Chloropyrimidin-4-yl)oxy)ethyl)bicyclo[1.1.1]pentan-1-yl)(4-fluoro-2-(3-fluorophenyl)pyrrolidin-1-yl)methanone] | 4210 nM | 1700 nM | – |
| N#Cc1cc(NCC23CC(C(=O)N4N=CCC4c4cc(F)cc(F)c4)(C2)C3)ncn1 (stereo not drawn) [Example 12, 6-(((3-(5-(3,5-Difluorophenyl)-4,5-dihydro-1H-pyrazole-1-carbonyl)bicyclo[1.1.1]pentan-1-yl)methyl)amino)pyrimidine-4-carbonitrile] | 887 nM | 243 nM | – |
| O=C(N1CC(F)CC1c1cccc(F)c1)C12CC(Cn3ncc4ncccc43)(C1)C2 (stereo not drawn) [Example 48, (3-((1H-pyrazolo[4,3-b]pyridin-1-yl)methyl)bicyclo[1.1.1]pentan-1-yl)-(4-fluoro-2-(3-fluorophenyl)pyrrolidin-1-yl)methanone] | 1300 nM | 186 nM | – |
| Cc1cnn(CC23CC(C(=O)N4N=CCC4c4cc(F)cc(F)c4)(C2)C3)c1 (stereo not drawn) [Example 74, (5-(3,5-difluorophenyl)-4,5-dihydro-1H-pyrazol-1-yl)(3-((4-methyl-1H-pyrazol-1-yl)-methyl)bicyclo[1.1.1]pentan-1-yl)methanone] | 514 nM | 124 nM | – |
| N#Cc1ccc2c(cnn2CC23CC(C(=O)N4N=CCC4c4ccc5nccn5c4)(C2)C3)c1 (stereo not drawn) [Example 258, 1-((3-(5-(imidazo[1,2-a]-pyridin-6-yl)-4,5-dihydro-1H-pyrazole-1-carbonyl)bicyclo-[1.1.1]pentan-1-yl)methyl)-1H-indazole-5-carbonitrile] | 3820 nM | 1010 nM | – |
| N#Cc1cc(OCC23CC(C(=O)N4N=CCC4c4cc(F)cc(F)c4)(C2)C3)ncn1 (stereo not drawn) [Example 9, 6-((3-(5-(3,5-Difluorophenyl)-4,5-dihydro-1H-pyrazole-1-carbonyl)bicyclo[1.1.1]pentan-1-yl)methoxy)pyrimidine-4-carbonitrile] | 62 nM | 16 nM | – |
| O=C(N1N=CCC1c1cc(F)cc(F)c1)C12CC(COc3cc(Br)ncn3)(C1)C2 (stereo not drawn) [Example 6, (3-(((6-Bromopyrimidin-4-yl)oxy)methyl)bicyclo[1.1.1]pentan-1-yl)(5-(3,5-difluorophenyl)-4,5-dihydro-1H-pyrazol-1-yl)methanone] | 20 nM | 23 nM | – |
| O=C(N1N=CCC1c1cc(F)cc(F)c1)C12CC(COc3ccc(Br)cc3F)(C1)C2 (stereo not drawn) [Example 331, (3-((4-bromo-2-fluoro-phenoxy)methyl)bicyclo-[1.1.1]pentan-1-yl)(5-(3,5-difluorophenyl)-4,5-dihydro-1H-pyrazol-1-yl)methanone] | 28 nM | 13 nM | – |
| N#Cc1ccc2nn(CC34CC(C(=O)N5N=CCC5c5cc(F)cc(F)c5)(C3)C4)cc2c1 (stereo not drawn) [Example 61, 2-((3-(5-(3,5-difluorophenyl)-4,5-dihydro-1H-pyrazole-1-carbonyl)bicyclo[1.1.1]-pentan-1-yl)methyl)-2H-indazole-5-carbonitrile] | 211 nM | 45 nM | – |
| (5-(3,5-difluorophenyl)-4,5-dihydro-1H-pyrazol-1-yl)(3-((6-fluoro-1H-benzo[d]-imidazol-1-yl)methyl)-bicyclo[1.1.1]pentan-1-yl)methanone and (5-(3,5-difluorophenyl)-4,5-dihydro-1H-pyrazol-1-yl)(3-((5-fluoro-1H-benzo[d]-imidazol-1-yl)methyl)-bicyclo[1.1.1]pentan-1-yl)methanone [Example 192] | – | 80 nM | 197 nM |
| CC1=NN(C(=O)C23CC(Cn4cc(C#N)cn4)(C2)C3)C(c2cc(F)cc(F)c2)C1 (stereo not drawn) [Example 47, 1-((3-(5-(3,5-difluorophenyl)-3-methyl-4,5-dihydro-1H-pyrazole-1-carbonyl)-bicyclo[1.1.1]pentan-1-yl)methyl)-1H-pyrazole-4-carbonitrile] | 1110 nM | 93 nM | – |
| O=C(N1N=CCC1c1cc(F)cc(F)c1)C12CC(CO)(C1)C2 (stereo not drawn) [Example 208, (5-(3,5-Difluorophenyl)-4,5-dihydro-1H-pyrazol-1-yl)(3-(hydroxymethyl)bicyclo[1.1.1]pentan-1-yl)methanone] | 4300 nM | 2270 nM | – |
| N#Cc1cnn2ccn(CC34CC(C(=O)N5N=CCC5c5cc(F)cc(F)c5)(C3)C4)c12 (stereo not drawn) [Example 146, 1-((3-(5-(3,5-difluorophenyl)-4,5-dihydro-1H-pyrazole-1-carbonyl)bicyclo[1.1.1]-pentan-1-yl)methyl)-1H-imidazo[1,2-b]pyrazole-7-carbonitrile] | 1920 nM | 324 nM | – |
| O=C(N1N=CCC1c1cc(F)ccc1F)C12CC(Cn3ncc4c(F)cccc43)(C1)C2 (stereo not drawn) [Example 84, (5-(2,5-difluorophenyl)-4,5-dihydro-1H-pyrazol-1-yl)(3-((4-fluoro-1H-indazol-1-yl)-methyl)bicyclo[1.1.1]pentan-1-yl)methanone] | 3 nM | 22 nM | – |
| O=C(N1N=CCC1c1cc(F)cc(F)c1)C12CC(C(O)c3cccc(Cl)c3)(C1)C2 (stereo not drawn) [Example 230, (3((3-chlorophenyl)-(hydroxy)methyl)bicyclo-[1.1.1]pentan-1-yl)(5-(3,5-difluorophenyl)-4,5-dihydro-1H-pyrazol-1-yl)methanone] | 407 nM | 93 nM | – |
| O=C(N1CC(F)CC1c1cccc(F)c1)C12CC(COc3ccccc3)(C1)C2 (stereo not drawn) [Example 31, (4-Fluoro-2-(3-fluorophenyl)pyrrolidin-1-yl)(3-(phenoxymethyl)-bicyclo[1.1.1]pentan-1-yl)methanone] | 462 nM | 55 nM | – |
| O=C(N1CC(F)CC1c1cccc(F)c1)C12CC(Cn3ncc4c(F)cccc43)(C1)C2 (stereo not drawn) [Example 83, (3-((4-fluoro-1H-indazol-1-yl)methyl)bicyclo[1.1.1]-pentan-1-yl)(4-fluoro-2-(3-fluorophenyl)pyrrolidin-1-yl)methanone] | 67 nM | 16 nM | – |
| N#Cc1cn(CC23CC(C(=O)N4N=CCC4c4cc(F)cc(F)c4)(C2)C3)nn1 (stereo not drawn) [Example 163, 1-((3-(5-(3,5-difluorophenyl)-4,5-dihydro-1H-pyrazole-1-carbonyl)bicyclo[1.1.1]-pentan-1-yl)methyl)-1H-1,2,3-triazole-4-carbonitrile] | 730 nM | 114 nM | – |
| Cc1csc(C2CC=NN2C(=O)C23CC(Cn4cc(C#N)cn4)(C2)C3)n1 (stereo not drawn) [Example 170, 1-((3-(5-(4-methylthiazol-2-yl)-4,5-dihydro-1H-pyrazole-1-carbonyl)bicyclo[1.1.1]-pentan-1-yl)methyl)-1H-pyrazole-4-carbonitrile] | 9890 nM | 4670 nM | – |
| O=C(N1N=CCC1c1cc(F)cc(F)c1)C12CC(COc3ncc(F)cn3)(C1)C2 (stereo not drawn) [Example 325, (5-(3,5-difluorophenyl)-4,5-dihydro-1H-pyrazol-1-yl)(3-(((5-fluoropyrimidin-2-yl)-oxy)methyl)bicyclo[1.1.1]-pentan-1-yl)methanone] | 193 nM | 21 nM | – |
| N#Cc1ccc(OCC23CC(C(=O)N4N=CCC4c4cc(F)cc(F)c4)(C2)C3)nc1 (stereo not drawn) [Example 320, 6-((3-(5-(3,5-difluorophenyl)-4,5-dihydro-1H-pyrazole-1-carbonyl)bicyclo[1.1.1]pentan-1-yl)methoxy)nicotinonitrile] | 30 nM | 19 nM | – |
| N#Cc1ncn(CC23CC(C(=O)N4N=CCC4c4cc(F)cc(F)c4)(C2)C3)n1 (stereo not drawn) [Example 178, 1-((3-(5-(3,5-difluorophenyl)-4.5-dihydro-1H-pyrazole-1-carbonyl)bicyclo[1.1.1]-pentan-1-yl)methyl)-1H-1,2,4-triazole-3-carbonitrile] | 228 nM | 103 nM | – |
| Cc1nn(CC23CC(C(=O)N4N=CCC4c4cc(F)cc(F)c4)(C2)C3)c2ccccc12 (stereo not drawn) [Example 153, (5-(3,5-difluorophenyl)-4,5-dihydro-1H-pyrazol-1-yl)(3-((3-methyl-1H-indazol-1-yl)-methyl)bicyclo[1.1.1]pentan-1-yl)methanone] | 553 nM | 204 nM | – |
| N#Cc1ccc2c(cnn2CC23CC(C(=O)N4N=CCC4c4cncc(F)c4)(C2)C3)c1 (stereo not drawn) [Example 128, 1-((3-(5-(5-fluoropyridin-3-yl)-4,5-dihydro-1H-pyrazole-1-carbonyl)bicyclo[1.1.1]-pentan-1-yl)methyl)-1H-indazole-5-carbonitrile] | 48 nM | 17 nM | – |
| N#Cc1ccc2cn(CC34CC(C(=O)N5N=CCC5c5cc(F)cc(F)c5)(C3)C4)nc2c1 (stereo not drawn) [Example 56, 2-((3-(5-(3,5-difluorophenyl)-4,5-dihydro-1H-pyrazole-1-carbonyl)bicyclo[1.1.1]-pentan-1-yl)methyl)-2H-indazole-6-carbonitrile] | 63 nM | 19 nM | – |
| N#Cc1ccc2c(ccn2CC23CC(C(=O)N4N=CCC4c4cc(F)cc(F)c4)(C2)C3)n1 (stereo not drawn) [Example 210, 1-((3-(5-(3,5-difluorophenyl)-4,5-dihydro-1H-pyrazole-1-carbonyl)bicyclo[1.1.1]pentan-1-yl)methyl)-1H-pyrrolo[3,2-b]pyridine-5-carbonitrile] | 10 nM | 9.4 nM | – |
| Cc1cn(CC23CC(C(=O)N4N=CCC4c4cc(F)cc(F)c4)(C2)C3)nc1C#N (stereo not drawn) [Example 157, 1-((3-(5-(3,5-difluorophenyl)-4,5-dihydro-1H-pyrazole-1-carbonyl)bicyclo[1.1.1]-pentan-1-yl)methyl)-4-methyl-1H-pyrazole-3-carbonitrile] | 170 nM | 42 nM | – |

Reference: US20250214942A1, “INHIBITORS OF RECEPTOR INTERACTING PROTEIN KINASE I FOR THE TREATMENT OF DISEASE” (Board of Regents, The University of Texas System, priority 2019, published 2025)
